{"source": "patent US5063206A", "about": "“Compositions having use as treatment of neuropsychiatric deficits” (The United States of Americas as represented by the …, priority 1989, dated 1991)", "tested_on": "volunteers who tested negative for HIV antibodies", "assay": "Clinical effects observed in volunteers who tested negative for HIV antibodies", "type": "in vivo, human", "procedure": "was given at dosage of 0.033 mg/kg/da to 0.133 mg/kg/da for seven days. As indicated in the Table, the unexpected effects observed in these volunteers who tested negative for HIV antibodies were the following: […]"}
{"substance": "D--Ala--Ser--Thr--Thr--Thr--Asn--Tyr--Thr--amide (ASTTTNYT; N-terminal D-residue; C-terminal amide; printed: Ala--Ser--Thr--Thr--Thr--Asn--Tyr--Thr--) [Peptide T]", "values": [{"measurement": "symptoms of substance abuse, childhood dyslexia and depression", "setting": "0.033 mg/kg/da to 0.133 mg/kg/da for seven days", "result": "ameliorated"}, {"measurement": "scores on memory and attention components of standard neuropsychologic tests", "setting": "0.033-0.133 mg/kg/da for seven days, effect remitted after Peptide T was discontinued", "result": "Incremental scores"}, {"measurement": "physical activity while on drug", "setting": "all subjects, did not continue after drug discontinuance", "result": "increases in physical activity"}, {"measurement": "mood scores on depression scales", "setting": "the two research volunteers who had prior histories of depression", "result": "Improved mood scores"}, {"measurement": "duration of the improved mood effect", "setting": "the two research volunteers who had prior histories of depression, follow-up", "result": "maintained for one month of follow-up"}]}
